# What was measured:
# Test in all cases: Bactericidal effect, number of remaining viable cells
# [1] = test system: MRSA ATCC43300; assay type: cell-based, Staphylococcus aureus; conditions: EGCG-C16 25 μg/ml, 0 to 6 hours, FIG. 2(A)
# Procedure: (§1) The bactericidal effect of EGCG-C16 against MRSA ATCC43300, E. coli MG1655, and P. aeruginosa PAO1 was measured. Each strain of bacteria was cultured using an MH-broth as a medium.
# (§2) The antibacterial agent solution and the bacterial culture solution were mixed together and the resultant mixture was cultured at 37° C. in the same manner as described in the above section (2), except that the final concentration of the EGCG-C16 in the mixture were set to: 6.25 μg/ml or 25 μg/ml for the MRSA; 200 μg/ml for the E. coli; and 50 μg/ml, 100 μg/ml, and 200 μg/ml for the P. aeruginosa. The number of viable cells in the mixture of the antibacterial agent solution and the bacterial culture solution was set to 1×10^5 CFU/ml. Then, after a lapse of a predetermined time from the start of the culture (0 hours, 2 hours, 4 hours, and 6 hours), the culture solution was collected and diluted with physiological saline so as to prepare 10-fold dilution series of solutions. 100 μl of each of the diluted bacterial culture solutions was placed on a petri dish. The diluted bacterial culture solution was hardened by mixing it with 10 ml of a Trypticase-soy Agar (BBL) that was kept at 50° C., and cultured at 37° C. overnight. Then, the number of the formed colonies (CFU/ml) was counted, and the number of remaining viable cells was measured. […]
# [2] = test system: E. coli MG1655; assay type: cell-based, Escherichia coli; conditions: EGCG-C16 200 μg/ml, 0 to 6 hours, FIG. 2(B)
# Procedure: as §1, §2
# [3] = test system: P. aeruginosa PAO1; assay type: cell-based, Pseudomonas aeruginosa; conditions: EGCG-C16 50, 100, 200 μg/ml, 0 to 6 hours, FIG. 2(C)
# Procedure: as §1, §2
substance,measurement,setting,value
EGCG-palmitate [EGCG-C16],number of remaining viable cells,[1],not only inhibited the propagation but also reduced the number of viable cells
same,number of remaining viable cells,[2],bacteriostatic action
same,number of remaining viable cells,[3],bacteriostatic action
